Results from US20120264735A1 (priority 2009, published 2012).

molecular target: T1, c-Met kinase (recombinant c-Met) (Homo sapiens, UniProt P08581); assay: In vitro kinase assay I (homogeneous time-resolved fluorescence tyrosine kinase assay); format: biochemical
T1 construct: 0.27 nM recombinant c-Met
Procedure, shortened: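 Biotinylated peptide (0.5 μM) phosphorylated by 0.2 nM recombinant c-Met with 50 μM MgATP, 60 min at room temperature, pH 7.4, 5% DMSO. EDTA stop; HTRF read with Eu-anti-phosphotyrosine antibody and streptavidin-APC. IC50 from 4-parameter logistic fit.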

T1 sequence (P08581 25-1390): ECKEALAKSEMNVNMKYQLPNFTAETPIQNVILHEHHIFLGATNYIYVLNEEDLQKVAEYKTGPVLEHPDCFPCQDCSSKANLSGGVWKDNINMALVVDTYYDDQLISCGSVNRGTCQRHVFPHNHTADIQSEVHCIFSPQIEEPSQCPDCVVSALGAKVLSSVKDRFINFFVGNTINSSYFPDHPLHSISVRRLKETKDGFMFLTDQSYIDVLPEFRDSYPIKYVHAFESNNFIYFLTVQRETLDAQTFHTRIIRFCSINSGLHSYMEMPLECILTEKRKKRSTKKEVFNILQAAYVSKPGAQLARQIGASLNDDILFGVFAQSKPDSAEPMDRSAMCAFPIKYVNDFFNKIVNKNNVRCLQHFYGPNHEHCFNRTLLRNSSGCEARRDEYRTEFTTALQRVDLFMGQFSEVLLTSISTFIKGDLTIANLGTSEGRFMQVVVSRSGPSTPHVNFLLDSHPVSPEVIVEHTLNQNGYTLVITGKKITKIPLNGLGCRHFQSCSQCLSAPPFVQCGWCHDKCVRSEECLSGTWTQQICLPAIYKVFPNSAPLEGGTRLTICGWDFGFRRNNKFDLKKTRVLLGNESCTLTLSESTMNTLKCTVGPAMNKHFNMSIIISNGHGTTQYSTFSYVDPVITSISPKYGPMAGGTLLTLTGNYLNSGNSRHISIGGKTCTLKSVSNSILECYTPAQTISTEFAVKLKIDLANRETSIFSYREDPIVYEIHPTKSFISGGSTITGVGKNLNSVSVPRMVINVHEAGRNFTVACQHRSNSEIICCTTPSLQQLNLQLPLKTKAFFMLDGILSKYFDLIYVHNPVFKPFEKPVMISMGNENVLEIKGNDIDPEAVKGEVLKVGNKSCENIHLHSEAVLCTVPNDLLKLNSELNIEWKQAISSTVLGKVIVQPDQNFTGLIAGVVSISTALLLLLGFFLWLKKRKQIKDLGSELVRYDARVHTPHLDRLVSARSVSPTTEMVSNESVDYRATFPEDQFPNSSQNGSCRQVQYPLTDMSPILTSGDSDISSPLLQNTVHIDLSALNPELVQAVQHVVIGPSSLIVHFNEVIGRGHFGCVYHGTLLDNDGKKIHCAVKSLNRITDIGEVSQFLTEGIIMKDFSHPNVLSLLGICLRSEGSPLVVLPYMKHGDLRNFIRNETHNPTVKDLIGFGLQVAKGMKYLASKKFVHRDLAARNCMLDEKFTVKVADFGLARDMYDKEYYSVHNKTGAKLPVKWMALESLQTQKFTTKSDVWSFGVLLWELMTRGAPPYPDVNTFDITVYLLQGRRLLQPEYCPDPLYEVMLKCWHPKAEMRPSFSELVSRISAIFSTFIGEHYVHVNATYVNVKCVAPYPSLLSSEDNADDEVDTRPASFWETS

Row | Structure (SMILES) | IC50 [µM]
1 | CCCOC(=O)Nc1cccc(Cc2nn(-c3cccnc3)ccc2=O)c1 [Example 28, propyl {3-[(4-oxo-1-pyridin-3-yl-1,4-dihydropyridazin-3-yl)methyl]phenyl}carbamate] | < 0.1
2 | O=c1ccn(-c2cccnc2)nc1Cc1cccc(-c2ncccn2)c1 [Example 29, 1-pyridin-3-yl-3-(3-pyrimidin-2-ylbenzyl)pyridazin-4(1H)-one] | 0.1 to 1
3 | CCCOC(=O)Nc1cccc(Cc2nn(-c3ccncc3)ccc2=O)c1 [Example 30, propyl {3-[(4-oxo-1-pyridin-4-yl-1,4-dihydropyridazin-3-yl)methyl]phenyl}carbamate] | < 0.1
4 | CCOC(=O)Nc1cccc(Cc2nn(-c3ccc(OC)nc3)ccc2=O)c1 [Example 31, ethyl (3-{[1-(6-methoxypyridin-3-yl)-4-oxo-1,4-dihydropyridazin-3-yl]methyl}phenyl)carbamate] | < 0.1
5 | CCCOC(=O)Nc1cccc(Cc2nn(-c3ccc(OC)nc3)ccc2=O)c1 [Example 32, propyl (3-{[1-(6-methoxypyridin-3-yl)-4-oxo-1,4-dihydropyridazin-3-yl]methyl}phenyl)carbamate] | < 0.1
6 | COc1cnc(-c2cccc(Cc3nn(-c4ccc(OC)nc4)ccc3=O)c2)nc1 [Example 33, 1-(6-methoxypyridin-3-yl)-3-[3-(5-methoxypyrimidin-2-yl)benzyl]pyridazin-4(1H)-one] | < 0.1
7 | CCOC(=O)Nc1cccc(Cc2nn(-c3cncc(F)c3)ccc2=O)c1 [Example 34, ethyl (3-{[1-(5-fluoropyridin-3-yl)-4-oxo-1,4-dihydropyridazin-3-yl]methyl}phenyl)carbamate] | < 0.1
8 | CCCOC(=O)Nc1cccc(Cc2nn(-c3cncc(F)c3)ccc2=O)c1 [Example 35, propyl (3-{[1-(5-fluoropyridin-3-yl)-4-oxo-1,4-dihydropyridazin-3-yl]methyl}phenyl)carbamate] | < 0.1
9 | COc1cnc(-c2cccc(Cc3nn(-c4cncc(F)c4)ccc3=O)c2)nc1 [Example 36, 1-(5-fluoropyridin-3-yl)-3-[3-(5-methoxypyrimidin-2-yl)benzyl]pyridazin-4(1H)-one] | < 0.1
10 | COc1cnc(-c2cccc(Cc3nn(-c4cncc(C)c4)ccc3=O)c2)nc1 [Example 37, 3-[3-(5-methoxypyrimidin-2-yl)benzyl]-1-(5-methylpyridin-3-yl)pyridazin-4(1H)-one] | < 0.1
11 | Cn1cc(-n2ccc(=O)c(Cc3cccc(-c4cnccn4)c3)n2)cn1 [Example 38, 1-(1-methyl-1H-pyrazol-4-yl)-3-[3-(pyrazin-2-yl)benzyl]pyridazin-4(1H)-one] | 1 to 3
12 | Cn1cc(-n2ccc(=O)c(Cc3cccc(-c4ccn(C)n4)c3)n2)cn1 [Example 39, 1-(1-methyl-1H-pyrazol-4-yl)-3-[3-(1-methyl-1H-pyrazol-3-yl)benzyl]pyridazin-4(1H)-one] | 0.1 to 1
13 | Cc1nccc(-c2cccc(Cc3nn(-c4cnn(C)c4)ccc3=O)c2)n1 [Example 40, 1-(1-methyl-1H-pyrazol-4-yl)-3-[3-(2-methylpyrimidin-4-yl)benzyl]pyridazin-4(1H)-one] | 1 to 3
14 | Cc1noc(-c2cccc(Cc3nn(-c4cnn(C)c4)ccc3=O)c2)n1 [Example 41, 3-[3-(3-methyl-1,2,4-oxadiazol-5-yl)benzyl]-1-(1-methyl-1H-pyrazol-4-yl)pyridazin-4(1H)-one] | 1 to 3
15 | Cc1nc(-c2cccc(Cc3nn(-c4cnn(C)c4)ccc3=O)c2)no1 [Example 42, 3-[3-(5-methyl-1,2,4-oxadiazol-3-yl)benzyl]-1-(1-methyl-1H-pyrazol-4-yl)pyridazin-4(1H)-one] | 0.1 to 1
16 | O=c1ccn(-c2ccc(Cl)cc2)nc1Cc1ccc2ncccc2c1 [Example 43, 1-(4-chlorophenyl)-3-(quinolin-6-ylmethyl)pyridazin-4(1H)-one] | 0.1 to 1
17 | Cc1ccc2c(Cc3nn(-c4cnn(C)c4)ccc3=O)cccc2n1 [Example 44, 1-(1-methyl-1H-pyrazol-4-yl)-3-[(2-methylquinolin-5-yl)methyl]pyridazin-4(1H)-one] | 1 to 3
18 | Cn1cc(-n2ccc(=O)c(Cc3cccc4c3CNC4=O)n2)cn1 [Example 45, 4-{[1-(1-methyl-1H-pyrazol-4-yl)-4-oxo-1,4-dihydropyridazin-3-yl]methyl}-2,3-dihydro-1H-isoindol-1-one] | 1 to 3
19 | Cn1cc(-n2ccc(=O)c(Cc3ccc4nccn4c3)n2)cn1 [Example 46, 3-(imidazo[1,2-a]pyridin-6-ylmethyl)-1-(1-methyl-1H-pyrazol-4-yl)pyridazin-4(1H)-one] | 1 to 3
20 | CCOC(=O)c1cccc(Cc2nn(-c3cnn(C)c3)ccc2=O)c1F [Example 47, ethyl 2-fluoro-3-{[1-(1-methyl-1H-pyrazol-4-yl)-4-oxo-1,4-dihydropyridazin-3-yl]methyl}benzoate] | 0.1 to 1

Row | Structure (SMILES) | IC50 [µM]
21 | Cn1cc(-n2ccc(=O)c(Cc3cccc(CC(N)=O)c3)n2)cn1 [Example 48, 2-(3-{[1-(1-methyl-1H-pyrazol-4-yl)-4-oxo-1,4-dihydropyridazin-3-yl]methyl}phenyl)acetamide] | 1 to 3
22 | Cn1cc(-n2ccc(=O)c(Cc3ccc4nn(C)cc4c3)n2)cn1 [Example 49, 3-[(2-methyl-2H-indazol-5-yl)methyl]-1-(1-methyl-1H-pyrazol-4-yl)pyridazin-4(1H)-one] | 1 to 3
23 | Cn1cc(-n2ccc(=O)c(Cc3cccc4[nH]ncc34)n2)cn1 [Example 50, 3-(1H-indazol-4-ylmethyl)-1-(1-methyl-1H-pyrazol-4-yl)pyridazin-4(1H)-one] | 1 to 3
24 | Cn1cc(-n2ccc(=O)c(Cc3ccc4occc4c3)n2)cn1 [Example 51, 3-(1-benzofuran-5-ylmethyl)-1-(1-methyl-1H-pyrazol-4-yl)pyridazin-4(1H)-one] | 1 to 3
25 | CCCOC(=O)Nc1cccc(Cc2nn(-c3cnn(C)c3)ccc2=O)c1 [Example 52, propyl (3-{[1-(1-methyl-1H-pyrazol-4-yl)-4-oxo-1,4-dihydropyridazin-3-yl]methyl}phenyl)carbamate] | < 0.1
26 | CC(C)COC(=O)Nc1cccc(Cc2nn(-c3cnn(C)c3)ccc2=O)c1 [Example 53, 2-methylpropyl (3-{[1-(1-methyl-1H-pyrazol-4-yl)-4-oxo-1,4-dihydropyridazin-3-yl]methyl}phenyl)carbamate] | < 0.1
27 | COCCOC(=O)Nc1cccc(Cc2nn(-c3cnn(C)c3)ccc2=O)c1 [Example 54, 2-methoxyethyl (3-{[1-(1-methyl-1H-pyrazol-4-yl)-4-oxo-1,4-dihydropyridazin-3-yl]methyl}phenyl)carbamate] | < 0.1
28 | Cn1cc(-n2ccc(=O)c(Cc3ccc4ncccc4c3)n2)cn1 [Example 55, 1-(1-methyl-1H-pyrazol-4-yl)-3-(quinolin-6-ylmethyl)pyridazin-4(1H)-one] | 0.1 to 1
29 | CCCOC(=O)Nc1cccc(Cc2nn(-c3cc(Cl)nc(Cl)c3)ccc2=O)c1 [Example 56, propyl (3-{[1-(2,6-dichloropyridin-4-yl)-4-oxo-1,4-dihydropyridazin-3-yl]methyl}phenyl)carbamate] | < 0.1
30 | CCCn1cnc(-c2cccc(Cc3nn(-c4cnn(C)c4)ccc3=O)c2)n1 [Example 57, 1-(1-methyl-1H-pyrazol-4-yl)-3-[3-(1-propyl-1H-1,2,4-traizol-3-yl)benzyl]pyridazin-4(1H)-one] | < 0.1
31 | Cn1cc(-n2ccc(=O)c(Cc3cccc(-c4nnn(C)n4)c3)n2)cn1 [Example 58, 1-(1-methyl-1H-pyrazol-4-yl)-3-[3-(2-methyl-2H-tetrazol-5-yl)benzyl]pyridazin-4(1H)-one] | 0.1 to 1
32 | CCOc1cnc2ccc(Cc3nn(-c4cnn(C)c4)ccc3=O)cc2c1 [Example 59, 3-[(3-ethoxyquinolin-6-yl)methyl]-1-(1-methyl-1H-pyrazol-4-yl)pyridazin-4(1H)-one] | 0.1 to 1
33 | Cn1cc(-n2ccc(=O)c(Cc3ccc4ncc(OCCN5CCOCC5)cc4c3)n2)cn1 [Example 60, 1-(1-methyl-1H-pyrazol-4-yl)-3-{[3-(2-morpholin-4-ylethoxy)quinolin-6-yl]methyl}pyridazin-4(1H)-one] | 0.1 to 1
34 | COCCOc1cnc2ccc(Cc3nn(-c4cnn(C)c4)ccc3=O)cc2c1 [Example 61, 3-{[3-(2-methoxyethoxy)quinolin-6-yl]methyl}-1-(1-methyl-1H-pyrazol-4-yl)pyridazin-4(1H)-one] | 0.1 to 1
35 | Cn1cc(-n2ccc(=O)c(Cc3ccc4ncc(OCC5(C)COC5)cc4c3)n2)cn1 [Example 62, 3-({3-[(3-methyloxetan-3-yl)methoxy]quinolin-6-yl}methyl)-1-(1-methyl-1H-pyrazol-4-yl)pyridazin-4(1H)-one] | < 0.1
36 | CCCOc1cnc2ccc(Cc3nn(-c4cnn(C)c4)ccc3=O)cc2c1 [Example 63, 1-(1-methyl-1H-pyrazol-4-yl)-3-[(3-propoxyquinolin-6-yl)methyl]pyridazin-4(1H)-one] | < 0.1
37 | CCOc1cnc2ccc(Cc3nn(-c4cc(F)c(F)c(F)c4)ccc3=O)cc2c1 [Example 65, 3-[(3-ethoxyquinolin-6-yl)methyl]-1-(3,4,5-trifluorophenyl)pyridazin-4(1H)-one] | 0.1 to 1
38 | COCCn1cnc(-c2cccc(Cc3nn(-c4cnn(C)c4)ccc3=O)c2)n1 [Example 66, 3-{3-[1-(2-methoxyethyl)-1H-1,2,4-triazol-3-yl]benzyl}-1-(1-methyl-1H-pyrazol-4-yl)pyridazin-4(1H)-one] | < 0.1
39 | Cn1cc(-n2ccc(=O)c(Cc3cccc(-c4ncc(OCc5ccccc5)cn4)c3)n2)cn1 [Example 67, 3-{3-[5-(benzyloxy)pyrimidin-2-yl]benzyl}-1-(1-methyl-1H-pyrazol-4-yl)pyridazin-4(1H)-one] | < 0.1
40 | CC(C)COC(=O)Nc1cccc(Cc2nn(-c3ccc(Br)cc3)ccc2=O)c1 [Example 68, 2-methylpropyl (3-{[1-(4-bromophenyl)-4-oxo-1,4-dihydropyridazin-3-yl]methyl}phenyl)carbamate] | < 0.1
